Patent US20050002904A1, “Uses of vascular endothelial growth factor and type I collagen inducible protein (VCIP)” (priority 2003, published 2005)
Marks after values point to notes of the source that are not given here. Where no end group is shown, it is not given here.

Tests used:
endothelial cells [1] = assay: Adhesion blocking assay on GST-VCIP-RGD-coated dishes; assay type: cell-based, human
PAP2b = molecular target: T1, PAP2b (Homo sapiens, UniProt O14495); settings: membrane fraction of 293T cells over-expressing PAP2b; cited from earlier work
T1 construct: expressed in transfected cells; host or cells: 293T cells (membrane fraction)
T1 sequence (O14495 1-311): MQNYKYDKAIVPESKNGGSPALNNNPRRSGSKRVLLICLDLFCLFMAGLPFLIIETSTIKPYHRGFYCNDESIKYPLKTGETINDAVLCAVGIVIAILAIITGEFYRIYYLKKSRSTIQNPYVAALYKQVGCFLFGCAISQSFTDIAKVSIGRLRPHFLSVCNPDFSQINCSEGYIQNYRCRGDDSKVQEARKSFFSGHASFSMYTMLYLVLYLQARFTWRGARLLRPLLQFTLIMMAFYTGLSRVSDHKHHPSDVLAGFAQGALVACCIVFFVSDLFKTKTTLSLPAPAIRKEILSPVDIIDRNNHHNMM

VCIP = VCIP mRNA induction by growth factors and cytokines in monolayer cells; assay type: cell-based, human
Procedure: FIGS. 1A-M show expression analysis and predicted amino acid sequence of VEGF and type I collagen inducible protein (VCIP). FIG. 1A: HUVECs were embedded into three-dimensional type I collagen gel in the presence of 20% adult human serum, 1× ITS and stimulated with VEGF^165 (100 ng/ml). Total RNA was prepared at the indicated time points. Northern blots were hybridized with a fragment of the VCIP (clone-33A) cDNA probe. The transcript size (3.4 kb) is indicated on the right. The numbers at the bottom of the gel represent the fold increase in VCIP mRNA levels, as compared with untreated cells. […] Total RNA was isolated at indicated time points and subjected to VCIP northern blot analysis. […] FIG. 1E: Poly(A)^+ RNA prepared from various human tissues was subjected to VCIP northern blot analysis by hybridization with the clone-33A cDNA probe. FIG. 1F: The blot shown in FIG. 1E was re-hybridized with a GAPDH probe, showing that equal amounts of RNA were loaded across the lanes. FIG. 1G: Detection of VCIP mRNA by RT-PCR (20 cycles): monolayer endothelial cells were treated for 30 min with: (1) untreated, (2) bFGF (20 ng/ml), (3) VEGF^165 (100 ng/ml), (4) PMA (20 ng/ml), (5) bFGF (20 ng/ml)+VEGF (100 ng/ml), (6) bFGF (20 ng/ml)+PMA (20 ng/ml), (7) VEGF (100 ng/ml)+PMA (20 ng/ml) and (8) bFGF (20 ng/ml)+VEGF (100 ng/ml)+PMA (20 ng/ml). FIGS. 1H-J: RT-PCR analysis of uPAR mRNA (FIG. 1H), β-actin mRNA (FIG. 11) and GAPDH mRNA levels (FIG. 1J) were carried out under the same conditions as described in FIG. 1G. All experiments were repeated at least three times, with similar results. FIG. 1K: Inserts from six recombinant_phage clones are shown, and the relative position of clone 33A is indicated. FIG. 1L: The complete predicted amino acid sequence of VCIP. The putative transmembrane segments are underlined. The N-linked glycosylation site is indicated by an asterisk. The lipid phosphatase catalytic domain is indicated by bold letters and underlined, and the RGD motif is boxed. FIG. 1M: The amino acid sequence of human VCIP (top) is aligned with other proteins containing lipid phosphatase-like catalytic motifs.
FIGS. 3A-F show VCIP induction by growth factors and cytokines. Indicated monolayer cells were stimulated with various growth factors and cytokines for 6 h in media M199 containing 10% serum+1× ITS. The concentrations of cytokines used were optimized according to their ability to induce Erk2 phosphorylation in western blot analysis: VEGF^165 (100 ng/ml), EGF (20 ng/ml), bFGF (30 ng/ml), TNF-α (15 ng/ml), PMA (10 ng/ml) and IL-1β (25 ng/ml). Total RNA (20 μg per lane) was subjected to northern blot analysis by hybridization with the indicated probes. The uPAR northern blot was included as a control for the cytokines used. Ethidium bromide-stained gels show equal amounts of RNA used (FIGS. 3C and F). Data shown are representative of those obtained in two or three separate experiments.
VCIP mRNA was most strongly expressed in human heart and placenta, tissues that are highly vascularized (FIG. 1E). Next, expression of VCIP in monolayer endothelial cells treated with bFGF, VEGF and PMA was examined (FIG. 1G). […] This pattern of regulation was identical to that of the human receptor for urokinase plasminogen activator (uPAR) expression (FIG. 1H). β-actin and GAPDH were included as controls and were not regulated under any of these conditions (FIGS. 1I and J).
To examine VCIP expression by other cell types, endothelial, smooth muscle and epithelial cells (A431) were stimulated in monolayer with various growth factors and cytokines for 6 h. Total RNA was then isolated and subjected to northern blot analysis for VCIP and uPAR (FIG. 3).

endothelial cells [2] = assay: Adhesion of endothelial cells to wells coated with GST fusion proteins; assay type: cell-based, human; settings: pretreatment 20 μg/ml for 1 h and continued exposure
Procedure: FIG. 10A: Affinity purified GST-fusion proteins were resolved on SDS±PAGE and stained with Coomassie Blue. FIG. 10B: Integrins were immobilized onto 96-well plates, and various GST-fusion proteins (ligands) were allowed to bind. Bound ligands were incubated with anti-GST antibodies, appropriate substrate added and the color intensity measured. OD values <0.05 were considered to be background binding. Data are expressed as mean±SD (n=4). FIG. 10C: Dose-dependent binding of αvβ3 integrin with recombinant GST-VCIP-RGD. FIGS. 10D-F: Representative photomicrographs of adhesion and spreading of endothelial cells replated onto dishes coated with either fibronectin (FIG. 9D), vitronectin (FIG. 9E) or GST-VCIP-RGD (FIG. 9F). […] Attached cells were stained, washed and absorbances of eluted dyes measured. […] Attached cells were stained, washed and absorbances of eluted dyes determined. […] Data are expressed as mean±S.D.; diamond, P<0.01; asterisk, P<0.001. […]
For adhesion blocking assays, endothelial cells were detached, washed with PBS and resuspended in M199 media containing 1 mM CaCl2 and 1 mM MgCl2 in the absence of serum or growth factors. […] Absorbances were measured at 540 nm.
Next, the capacity of VCIP-RGD to bind endothelial cell integrins was evaluated by determining the effect of GST-VCIP fusion proteins on cell adhesion and spreading.

[3] = tested on: HEK cells stably expressing pLNCX2-VCIP-RGD (WT); assay: Cell aggregation of HEK cells stably expressing VCIP constructs (Table 1); assay type: cell-based; settings: for size, speed of formation and number of cell aggregates: continuous presence, antibody 25-50 μl/ml, peptides 10-50 nM; for % cell aggregates: WT cells, 48 h, mean ± SD
Procedure: WT cells were also incubated with several peptides modeled after the VCIP-RGD region. When WT cells were cultured in the continuous presence of an anti-VCIP-RGD antibody (25-50 μl/ml) and NYRCRGDDSK (SEQ ID NO:20) (10-50 nM), the size, the speed of formation and the number of such cell aggregates were reduced (Table 1).

[4] = A431 epidermoid carcinoma cells, 6 h, northern blot
[5] = monolayer endothelial cells, RT-PCR, 30 min

## O=C(O)CN(CCN(CC(=O)O)CC(=O)O)CC(=O)O [EDTA, reference compound]
Endothelial cells [1]; 2.5 mM (pH 7.4) for 5 min
  detachment of endothelial cells adhered to VCIP: caused the cells to detach from tissue culture dishes

## CCN1C(=O)C=CC1=O [N-ethylmaleimide]
PAP2b
  effect on phosphatase activity against phosphatidic acid: insensitive

## CCCCCCCCCCCCCC(=O)O[C@@H]1[C@@H](C)[C@@]2(O)[C@@H](C=C(CO)C[C@]3(O)C(=O)C(C)=C[C@@H]23)[C@@H]2C(C)(C)[C@]12OC(C)=O [PMA]
VCIP; [4]
  induction of VCIP expression: strongly induced
VCIP; AoSMC, 6 h, northern blot
  induction of VCIP expression: did not
VCIP; CASMCs, 6 h, northern blot
  induction of VCIP expression: Neither PMA nor VEGF^165 induced expression of VCIP
VCIP; [5]
  induction of VCIP expression: equally able to induce expression of VCIP

## C[C@@H]1C[C@@H]([C@H](O)CC2CC(=O)NC(=O)C2)C(=O)[C@@H](C)C1 [cycloheximide, reference compound]
Endothelial cells [2]
  total number of attached cells: did not decrease the total number of attached cells

## CC(C)NCC(O)COc1cccc2ccccc12 (centres unmarked) [propranolol]
PAP2b
  effect on phosphatase activity against phosphatidic acid: blocked

## CCCCCCCCCCCCC/C=C/[C@@H](O)[C@@H](N)CO [sphingosine]
PAP2b
  effect on phosphatase activity against phosphatidic acid: blocked

## NYRCRADDSK (CHAIN a peptide containing a mutated RGD sequence)
[3]
  size, speed of formation and number of cell aggregates: no reduction in cell aggregation
[3]; substance 10 nM
  % cell aggregates: 92 ± 5.7%
[3]; substance 30 nM
  % cell aggregates: 89 ± 7.5%
[3]; substance 50 nM
  % cell aggregates: 90 ± 7.2^a %

## NYRCRGDDSK (CHAIN a peptide containing RGD sequence)
[3]
  size, speed of formation and number of cell aggregates: reduced
[3]; substance 10 nM
  % cell aggregates: 67 ± 15.7%
[3]; substance 30 nM
  % cell aggregates: 46 ± 13.3%
[3]; substance 50 nM
  % cell aggregates: 28 ± 10.5^a %

## NYRCRGDDSKVQE (also: acetylated) [acetylated NYRCRGDDSKVQE (VCIP-RGD)]
Endothelial cells [1]; 5 nM
  detachment of attached cells from VCIP-RGD-coated wells: eventually completely detached from the wells
Endothelial cells [1]; 5 nM, cells plated on VCIP-RGD-coated wells
  time until attached cells rounded up: ≤ 5 min

## NYRCRGEDSK (CHAIN a peptide containing a mutated RGD sequence)
[3]
  size, speed of formation and number of cell aggregates: no reduction in cell aggregation

## TNF-α
VCIP; [4]
  induction of VCIP expression: had no effect

## bFGF: Basic Fibroblast growth factor
VCIP; [4]
  induction of VCIP expression: had no effect
VCIP; [5]
  induction of VCIP expression: equally able to induce expression of VCIP
